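Values below derive from 48-hour exposures of cells grown in 96-well plates, with endpoints linearly interpolated between the two concentrations bracketing the appropriate inhibition level. Abbreviation: GI50, concentration required for 50% inhibition of growth.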 Calls of active or inactive are those of the source. No stated cut-off is given here; in the data, active = GI50 up to about 1.1 µM and inactive = higher.
Tests used:
Experiment in all cases: growth of human tumour cells (NCI), 48 h
[1] = test system: OVCAR-3
[2] = test system: RXF 393
[3] = test system: SF-539
[4] = test system: HT-29
[5] = test system: OVCAR-4
[6] = test system: SK-MEL-5
[7] = test system: HL-60
[8] = test system: LOX IMVI
[9] = test system: RPMI-8226
[10] = test system: 786-0
[11] = test system: SNB-75
[12] = test system: UACC-62
[13] = test system: SK-MEL-2
[14] = test system: MDA-N
[15] = test system: SK-OV-3
[16] = test system: MDA-MB-231
[17] = test system: CAKI-1
[18] = test system: CCRF-CEM
[19] = test system: T47D
[20] = test system: ACHN

Measured: GI50

COc1ccc(NS(=O)(=O)c2ccc(NC(NC(=O)CC(C)C)(C(F)(F)F)C(F)(F)F)cc2)nn1
inactive: [1] > 100 µM | [2] > 100 µM | [3] > 100 µM | [4] > 100 µM | [5] > 100 µM | [6] > 100 µM | [7] > 100 µM | [8] > 100 µM | [9] > 100 µM | [10] > 100 µM | [11] > 100 µM | [12] > 100 µM | [13] > 100 µM | [14] > 100 µM | [15] > 100 µM | [16] > 100 µM | [17] > 100 µM | [18] > 100 µM | [19] > 100 µM | [20] > 100 µM

CC(C)(C)C(=O)CP(=O)(O)O
inactive: [1] > 100 µM | [2] > 100 µM | [3] > 100 µM | [4] > 100 µM | [5] > 100 µM | [6] > 100 µM | [7] > 100 µM | [8] > 100 µM | [9] > 100 µM | [10] > 100 µM | [11] > 100 µM | [12] > 100 µM | [13] > 100 µM | [14] > 100 µM | [15] > 100 µM | [16] > 100 µM | [17] > 100 µM | [18] > 100 µM | [19] > 100 µM | [20] > 100 µM

From ChEMBL document CHEMBL1201862, “PubChem BioAssay data set” (2004)
